{"source": "patent US5670514A", "about": "“Compositions for inhibiting bone loss” (priority 1996, dated 1997)"}
{"molecular_target": "T1, Human Type I Steroid 5α-Reductase (Homo sapiens, UniProt P18405)", "T1 construct": "Preparation of Type I 5α-Reductase from Human Scalp; from tissue; host or cells: human scalp skin (punch biopsies from hair transplant graft recipient sites), 100,000 x g pellet of homogenate", "T1 sequence (P18405 1-259)": "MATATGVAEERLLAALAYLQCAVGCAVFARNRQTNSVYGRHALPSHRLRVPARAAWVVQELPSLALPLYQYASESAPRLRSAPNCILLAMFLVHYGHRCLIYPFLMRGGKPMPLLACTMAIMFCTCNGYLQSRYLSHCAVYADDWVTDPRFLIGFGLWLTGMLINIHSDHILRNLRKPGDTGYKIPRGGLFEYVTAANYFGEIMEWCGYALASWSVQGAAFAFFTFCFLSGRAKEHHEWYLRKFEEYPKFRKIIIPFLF", "test": "Human Type I Steroid 5α-Reductase homogenate assay (human scalp enzyme; conversion of [3H]-testosterone to [3H]-5α-dihydrotestosterone and other 5α-reduced metabolites)", "assay_type": "biochemical", "conditions": "0.3 μM; compared to control reaction mixtures; 50 nM [3H]-testosterone, pH 7.5, 25°, 180 min", "source_text": "Methodology of Human Type I Steroid 5α-Reductase Assays\nThe subcutaneous tissue was cut away and discarded. The skin was frozen with liquid nitrogen and pulverized to powder. […] The homogenization procedure consisted of four 15 second pulses. Connective tissue was cleared from the probe with forceps between pulses. […] The pellet was resuspended by homogenization with a Dounce homogenizer using the same buffer solution. An aliquot was taken for protein determination by the Lowry method, Lowry, et al., Protein Measurement with the Folin Phenol Reagent, J. Biol. Chem., 193, 265-75 (1951). Aliquots of the enzyme preparation were stored at -80° until use.\nThe reaction was initiated by the addition of 0.5 mg of Type I 5α-reductase. The reaction mixture was incubated at 25° for 180 min, and terminated by the addition of 1 mL ice-cold stopping solution. […] The samples were prepared for high performance liquid chromatography by solid phase extraction. […] The reaction mixtures were then applied to the columns. The columns were subsequently washed with 5 mL of acetone:water (1:4), followed by 0.3 mL of methanol. The samples were then eluted with 3 mL of methanol and collected in 20 mL scintillation vials. Three mL of water was then added to each scintillation vial. […] The column temperature was maintained at 35° and the flow rate was 1.5 mL/min.", "units": {"percent inhibition of Type I 5AR": "%"}}
{"compound": "CN1C(=O)CC[C@]2(C)c3ccc(-c4cccc(NC(=O)C(C)(C)C)c4)cc3CC[C@@H]12", "note": "[Example 34, (+)-(4aR)-(10bR)-4-methyl-8-(3-t-butylcarboxamidophenyl)-10b-methyl-1,2,3,4,4a,5,6,10b-octahydrobenzo[f]quinolin-3-one]", "percent inhibition of Type I 5AR": 13}
{"compound": "CN1C(=O)CC[C@]2(C)c3ccc(-c4cccc(NC(=O)C5CCN(Cc6ccccc6)CC5)c4)cc3CC[C@@H]12", "note": "[Example 209, (+)-(4aR)-(10bR)-4-methyl-8-(3-[1-benzyl-4-piperidinyl-carboxamido]phenyl)-10b-methyl-1,2,3,4,4a,5,6,10b-octahydrobenzo[f]quinolin-3-one]", "percent inhibition of Type I 5AR": 24}
{"compound": "CN1C(=O)CC[C@]2(C)c3ccc(-c4ccc(-c5ccc(NC(=O)C(C)(C)C)s5)cc4)cc3CC[C@@H]12", "note": "[Example 222, (+)-(4aR)-(10bR)-4-methyl-8-(4-[(2-t-butylcarbonylamino]-5-thienyl]phenyl)-10b-methyl-1,2,3,4,4a,5,6,10b-octahydro-benzo[f]quinolin-3-one]", "percent inhibition of Type I 5AR": 86}
{"compound": "(+)-(4aR)-(10bR)-4-methyl-8-benzyloxycarbonyl-10b-methyl-1,2,3,4,4a,5,6,10b-octahydrobenzo[f]quinolin-3-one [Example 144]", "percent inhibition of Type I 5AR": 90}
